Tests used:
[1] = molecular target: T1, BTK (Homo sapiens (Human), UniProt Q06187); experiment: In Vitro BTK Kinase Assay: BTK-POLYGAT-LS ASSAY; format: biochemical; conditions: ATP 10 μM, polyGAT 100 nM, BTK 0.25 nM, 30 minutes
Method: The purpose of the BTK in vitro assay is to determine compound potency against BTK through the measurement of IC50. […] The BTK kinase reaction was done in a black 96 well plate (costar 3694). For a typical assay, a 24 μL aliquot of a ATP/peptide master mix (final concentration; ATP 10 μM, polyGAT 100 nM) in kinase buffer (10 mM Tris-HCl pH 7.5, 10 mM MgCl2, 200 μM […], 5 mM DTT, 0.01% Triton X-100, and 0.2 mg/ml casein) is added to each well. Next, […] of a 4-fold, 40× compound titration in 100% DMSO solvent is added, followed by adding 15 μL of BTK enzyme mix in 1× kinase buffer (with a final concentration of 0.25 nM). The assay is incubated for 30 minutes before being stopped with […] of a 50 mM EDTA solution. Aliquots (5 μL) of the kinase reaction are transferred to a low volume white 384 well plate (Coming 3674), and […] of a 2× detection buffer (Invitrogen PV3574, with 4 nM Tb-PY20 antibody, Invitrogen PV3552) is added. The plate is covered and incubated for 45 minutes at room temperature. Time resolved fluorescence (TRF) on Molecular Devices M5 (332 nm excitation; 488 nm emission; 518 nm fluorescein emission) is measured.

[2] = molecular target: T1, BTK; experiment: In Vitro PD Assay in Human Whole Blood (pBTK assay); format: cell-based; conditions: 37° C. for 30 min, 50% inhibition of ECL signal
Method: Human heparinized venous blood was purchased from Bioreclamation, Inc. or SeraCare Life Sciences and shipped overnight. Whole blood was aliquoted into 96-well plate and “spiked” with serial dilutions of test compound in DMSO or with DMSO without drug. The final concentration of DMSO in all wells was 0.1%. The plate was incubated at 37° C. for 30 min. Lysis buffer containing protease and phosphatase inhibitors was added to the drug-containing samples and one of the DMSO-only samples (+PPi, high control), while lysis buffer containing protease inhibitors was added to the other DMSO-only samples (−PPi, low control). All of the lysed whole blood samples were subjected to the total BTK capture and phosphotyrosine detection method described in US20160311802, incorporated herein by reference.

T1 sequence (Q06187 whole entry): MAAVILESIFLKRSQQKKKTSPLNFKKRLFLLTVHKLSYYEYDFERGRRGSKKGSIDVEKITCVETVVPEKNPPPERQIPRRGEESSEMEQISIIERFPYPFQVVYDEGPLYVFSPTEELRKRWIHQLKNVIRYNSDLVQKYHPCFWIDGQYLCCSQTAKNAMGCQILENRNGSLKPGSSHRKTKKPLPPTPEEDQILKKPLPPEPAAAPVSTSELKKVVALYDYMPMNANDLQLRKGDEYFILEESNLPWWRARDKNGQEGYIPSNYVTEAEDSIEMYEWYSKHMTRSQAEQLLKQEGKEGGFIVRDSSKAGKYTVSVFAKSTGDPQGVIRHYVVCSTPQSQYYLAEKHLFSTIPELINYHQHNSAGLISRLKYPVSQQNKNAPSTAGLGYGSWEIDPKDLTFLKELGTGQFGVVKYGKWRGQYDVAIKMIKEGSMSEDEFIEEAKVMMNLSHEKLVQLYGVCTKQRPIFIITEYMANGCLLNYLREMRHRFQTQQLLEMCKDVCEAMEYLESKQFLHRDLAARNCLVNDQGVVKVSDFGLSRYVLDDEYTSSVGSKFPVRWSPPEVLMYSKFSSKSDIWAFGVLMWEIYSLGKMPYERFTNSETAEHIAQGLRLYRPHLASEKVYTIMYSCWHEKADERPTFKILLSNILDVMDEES

CC(C)(C)c1noc(C(=O)N[C@@H]2CCCCc3cc(-c4ccnc(NC(=O)[C@@H]5C[C@H]5C#N)c4)ccc32)n1 [Compound 51, 3-(tert-butyl)-N-((R)-2-(2-((1R,2R)-2-cyanocyclopropane-1-carboxamido)pyridin-4-yl)-6,7,8,9-tetrahydro-5H-benzo[7]annulen-5-yl)-1,2,4-oxadiazole-5-carboxamide] was tested, and the IC50 [1] was ≤ 1 nM and the IC50 [2] was 100 to 500 nM.
In the case of Cc1c(CNC(=O)c2noc(C(C)(C)C)n2)cc(F)c(-c2ccnc(NC(=O)C3CC3)c2)c1F [Compound 61, 5-(tert-butyl)-N-(4-(2-(cyclopropanecarboxamido)pyridin-4-yl)-3,5-difluoro-2-methylbenzyl)-1,2,4-oxadiazole-3-carboxamide], the IC50 [1] is reported as ≤ 1 nM and the IC50 [2] is reported as 500 to 10000 nM.
In the case of Cc1cc(-c2cc(NC(=O)C3CC3)ncc2Cl)ccc1CNC(=O)c1noc(C(C)(C)C)n1 [Compound 7, 5-(tert-butyl)-N-(4-(5-chloro-2-(cyclopropanecarboxamido)pyridin-4-yl)-2-methylbenzyl)-1,2,4-oxadiazole-3-carboxamide], the IC50 [1] is reported as ≤ 1 nM and the IC50 [2] is reported as 100 to 500 nM.
For Cc1cc(-c2ccnc(NC(=O)C3CC3)c2)ccc1[C@@H](C)NC(=O)c1nc(C(C)(C)C)no1 [Compound 93, (R)-3-(tert-butyl)-N-(1-(4-(2-(cyclopropanecarboxamido)pyridin-4-yl)-2-methylphenyl)ethyl)-1,2,4-oxadiazole-5-carboxamide], the IC50 [1] was ≤ 1 nM and the IC50 [2] was 100 to 500 nM.
In the case of CC(C)(C)c1nc(C(=O)N[C@@H]2CCCCc3cc(-c4ccnc(NC(=O)C5CC5)c4)ccc32)co1 [Compound 68, (R)-2-(tert-butyl)-N-(2-(2-(cyclopropanecarboxamido)pyridin-4-yl)-6,7,8,9-tetrahydro-5H-benzo[7]annulen-5-yl)oxazole-4-carboxamide], the IC50 [1] is reported as ≤ 1 nM and the IC50 [2] is reported as 500 to 10000 nM.
For C[C@@H](NC(=O)c1noc(C(C)(C)C)n1)c1cc(F)c(-c2ccnc(NC(=O)C3CC3)c2)cc1Cl [Compound 76, (R)-5-(tert-butyl)-N-(1-(2-chloro-4-(2-(cyclopropanecarboxamido)pyridin-4-yl)-5-fluorophenyl)ethyl)-1,2,4-oxadiazole-3-carboxamide], the IC50 [1] was ≤ 1 nM and the IC50 [2] was 500 to 10000 nM.
With C[C@@H](NC(=O)c1noc(C(C)(C)C)n1)c1ccc(-c2cc(NC(=O)C3CC3)ncc2F)cc1Cl [Compound 22, (R)-5-(tert-butyl)-N-(1-(2-chloro-4-(2-(cyclopropanecarboxamido)-5-fluoropyridin-4-yl)phenyl)ethyl)-1,2,4-oxadiazole-3-carboxamide] the IC50 [1] was ≤ 1 nM and the IC50 [2] was 100 to 500 nM.
With CC(C)(C)c1noc(C(=O)NCc2ccc(-c3ccnc(NC(=O)C4CC4)c3)c(F)c2C2CC2)n1 [Compound 34, 3-(tert-butyl)-N-(4-(2-(cyclopropanecarboxamido)pyridin-4-yl)-2-cyclopropyl-3-fluorobenzyl)-1,2,4-oxadiazole-5-carboxamide] the IC50 [1] was ≤ 1 nM and the IC50 [2] was 500 to 10000 nM.
With CC(C)(C)c1noc(C(=O)NCc2ccc(-c3ccnc(NC(=O)C4CC4)c3)cc2C(F)(F)F)n1 [Compound 17, 3-(tert-butyl)-N-(4-(2-(cyclopropanecarboxamido)pyridin-4-yl)-2-(trifluoromethyl)benzyl)-1,2,4-oxadiazole-5-carboxamide] the IC50 [1] was ≤ 1 nM and the IC50 [2] was ≤ 100 nM.
With Cc1c(-c2ccnc(NC(=O)C3CC3)c2)ccc(CNC(=O)c2nc(C(C)(C)C)no2)c1F [Compound 100, 3-(tert-butyl)-N-(4-(2-(cyclopropanecarboxamido)pyridin-4-yl)-2-fluoro-3-methylbenzyl)-1,2,4-oxadiazole-5-carboxamide] the IC50 [1] was ≤ 1 nM and the IC50 [2] was 500 to 10000 nM.
With C[C@@H](NC(=O)c1noc(C(C)(C)C)n1)c1ccc(-c2ccnc(NC(=O)C3CC3)c2)cc1Cl [Compound 21, (R)-5-(tert-butyl)-N-(1-(2-chloro-4-(2-(cyclopropanecarboxamido)pyridin-4-yl)phenyl)ethyl)-1,2,4-oxadiazole-3-carboxamide] the IC50 [1] was ≤ 1 nM and the IC50 [2] was ≤ 100 nM.
For Cc1cc(-c2ccnc(NC(=O)[C@H]3C[C@@H]3F)c2)ccc1CNC(=O)c1noc(C(C)(C)C)n1 [Compound 37, 5-(tert-butyl)-N-(4-(2-((1R,2S)-2-fluorocyclopropane-1-carboxamido)pyridin-4-yl)-2-methylbenzyl)-1,2,4-oxadiazole-3-carboxamide], the IC50 [1] was ≤ 1 nM and the IC50 [2] was 500 to 10000 nM.
For CC(C)(C)c1noc(C(=O)NCc2ccc(-c3ccnc(NC(=O)C4CC4)c3)c(F)c2C(F)(F)F)n1 [Compound 69, 3-(tert-butyl)-N-(4-(2-(cyclopropanecarboxamido)pyridin-4-yl)-3-fluoro-2-(trifluoromethyl)benzyl)-1,2,4-oxadiazole-5-carboxamide], the IC50 [1] was ≤ 1 nM and the IC50 [2] was 100 to 500 nM.
CC(C)(C)c1nc(C(=O)N[C@H]2CCCOc3cc(-c4ccnc(NC(=O)C5CC5)c4)ccc32)no1 [Compound 53, (S)-5-(tert-butyl)-N-(8-(2-(cyclopropanecarboxamido)pyridin-4-yl)-2,3,4,5-tetrahydrobenzo[b]oxepin-5-yl)-1,2,4-oxadiazole-3-carboxamide] was tested, and the IC50 [1] was 10 to 1000 nM and the IC50 [2] was > 10000 nM.
Cc1cc(-c2ccnc(NC(=O)[C@@H]3C[C@H]3F)c2)ccc1CNC(=O)c1noc(C(C)(C)C)n1 [Compound 38, 5-(tert-butyl)-N-(4-(2-((1S,2R)-2-fluorocyclopropane-1-carboxamido)pyridin-4-yl)-2-methylbenzyl)-1,2,4-oxadiazole-3-carboxamide] was tested, and the IC50 [1] was ≤ 1 nM and the IC50 [2] was 500 to 10000 nM.
In the case of CC(C)(C)c1nc(C(=O)N[C@@H]2CCCOc3cc(-c4ccnc(NC(=O)C5CC5)c4)ccc32)no1 [Compound 54, (R)-5-(tert-butyl)-N-(8-(2-(cyclopropanecarboxamido)pyridin-4-yl)-2,3,4,5-tetrahydrobenzo[b]oxepin-5-yl)-1,2,4-oxadiazole-3-carboxamide], the IC50 [1] is reported as ≤ 1 nM and the IC50 [2] is reported as 100 to 500 nM.
CC(C)(C)c1noc(C(=O)NC2CCCOc3cc(-c4ccnc(NC(=O)C5CC5)c4)ccc32)n1 (stereo not shown) [Compound 55, 3-(tert-butyl)-N-(8-(2-(cyclopropanecarboxamido)pyridin-4-yl)-2,3,4,5-tetrahydrobenzo[b]oxepin-5-yl)-1,2,4-oxadiazole-5-carboxamide] was tested, and the IC50 [1] was ≤ 1 nM and the IC50 [2] was 500 to 10000 nM.
For CC(C)(C)c1noc(C(=O)N[C@@H]2CCCCc3cc(-c4ccnc(NC(=O)C5CC5(F)F)c4)ccc32)n1 (stereo partly drawn) [Compound 58, 3-(tert-butyl)-N-((5R)-2-(2-(2,2-difluorocyclopropane-1-carboxamido)pyridin-4-yl)-6,7,8,9-tetrahydro-5H-benzo[7]annulen-5-yl)-1,2,4-oxadiazole-5-carboxamide], the IC50 [1] was ≤ 1 nM and the IC50 [2] was 500 to 10000 nM.
In the case of Cc1cc(CNC(=O)c2noc(C(C)(C)C)n2)c(F)cc1-c1ccnc(NC(=O)C2CC2)c1 [Compound 102, 5-(tert-butyl)-N-(4-(2-(cyclopropanecarboxamido)pyridin-4-yl)-2-fluoro-5-methylbenzyl)-1,2,4-oxadiazole-3-carboxamide], the IC50 [1] is reported as 10 to 1000 nM and the IC50 [2] is reported as 500 to 10000 nM.
In the case of Cc1c(CNC(=O)c2noc(C(C)(C)C)n2)ccc(-c2ccnc(NC(=O)C3CC3)c2)c1Cl [Compound 84, 5-(tert-butyl)-N-(3-chloro-4-(2-(cyclopropanecarboxamido)pyridin-4-yl)-2-methylbenzyl)-1,2,4-oxadiazole-3-carboxamide], the IC50 [1] is reported as ≤ 1 nM and the IC50 [2] is reported as 100 to 500 nM.
In the case of CC(C)(C)c1noc(C(=O)N[C@@H]2CCN(CC(F)(F)F)Cc3cc(-c4ccnc(NC(=O)C5CC5)c4)ccc32)n1 [Compound 92, (R)-3-(tert-butyl)-N-(8-(2-(cyclopropanecarboxamido)pyridin-4-yl)-2-(2,2,2-trifluoroethyl)-2,3,4,5-tetrahydro-1H-benzo[c]azepin-5-yl)-1,2,4-oxadiazole-5-carboxamide], the IC50 [1] is reported as ≤ 1 nM and the IC50 [2] is reported as 100 to 500 nM.
In the case of Cc1cc(-c2cc(NC(=O)C3CC3)ncc2F)ccc1CNC(=O)c1noc(C(C)(C)C)n1 [Compound 106, 5-(tert-butyl)-N-(4-(2-(cyclopropanecarboxamido)5-fluoropyridin-4-yl)-2-methylbenzyl)-1,2,4-oxadiazole-3-carboxamide], the IC50 [1] is reported as ≤ 1 nM and the IC50 [2] is reported as 500 to 10000 nM.
In the case of Cc1cc(-c2ccnc(NC(=O)C3CC3)c2)c(F)cc1CNC(=O)c1noc(C(C)(C)C)n1 [Compound 13, 5-(tert-butyl)-N-(4-(2-(cyclopropanecarboxamido)pyridin-4-yl)-5-fluoro-2-methylbenzyl)-1,2,4-oxadiazole-3-carboxamide], the IC50 [1] is reported as ≤ 1 nM and the IC50 [2] is reported as ≤ 100 nM.
